In US5063205A, “Uptake of iron by the body” (National Research Development Corporation, priority 1987, dated 1991):

Key:
duodenum = assay: Duodenum wet weight and cell turnover (L-ornithine decarboxylase activity) after oral EGF; format: in vivo, mouse; conditions: oral EGF about 1 n.mole/day, up to 7 days
mice = assay: Whole body retention of intragastric 59Fe3+ by gamma counting; format: in vivo, mouse; conditions: EGF in drinking water for 3 days, 12 hours fast, intragastric 1 μCurie 59Fe3+ as 50 μl of 100 μM chelate; whole body count
Experimental: (B) The procedure described under (A) was repeated but with the treated mice receiving the EGF for 3 rather than 7 days. After fasting for 12 hours both the EGF-treated and the control mice were treated intragastrically with 1 μCurie of ^59 Fe^3+ administered as 50 μl of a 100 μM aqueous solution of the radiolabelled 2:1 nitrilotriacetic acid:iron(III) complex. The mice were subjected to a whole body count by gamma counting at 3 hours and 7 days later.

[1] = given intravenously; cited from earlier work
[2] = system: tied-off loop of intestine of an anaesthetised mouse; assay: In vivo 59Fe3+ uptake from tied-off loop of intestine of anaesthetised mouse
Experimental: (§1) (A) Six week old, male To mice received doses averaging 1 n.mole/day of mouse epidermal growth factor in their drinking water during a period of up to 7 days, a control group of similar mice receiving plain drinking water. Iron absorption was then studied in the mice by both in vitro and in vivo techniques. The former, using techniques as described by Raja et al, Cell Biochem. and Funct., 1987, 5, 69-76, involved incubation of intestinal fragments from the mice with a 0-450 μM solution of a Fe^3+ chelate (the 2:1 nitrilotriacetate:iron(III) complex) whilst the latter, using techniques as described by Simpson and Peters, Biochim. Biophys. Acta., 1986, 856, 115-122), involved instillation of 50-100 μl of a 250 μM solution of the Fe^3+ chelate into a tied-off loop of intestine of an anaesthetised mouse.

[3] = system: intestinal fragments from the mice; assay: In vitro 59Fe3+ uptake by intestinal fragments from EGF-fed mice; set-up: species or system mouse; conditions: intestinal fragments of mice given about 1 n.mole/day EGF in drinking water; 0-450 μM Fe3+ nitrilotriacetate chelate; n in parentheses
Experimental: as §1

[4] = mean ± SE, oral EGF about 1 n.mole/day in drinking water, 250 μM Fe3+ chelate in tied-off loop, p < 0.01 vs controls

In the case of epidermal growth factor [EGF], the “Cell turnover rates as reflected by L-ornithine decarboxylase activity in the duodenum” value (duodenum) is listed as “elevated”, the “Percentage of the 59Fe3+ present at 3 hours which was retained after 7 days” value (mice) is listed as 21.0±3.2 and the “Half life in vivo” value [1] is listed as “about 21/2”. For the same substance, the “Time course of total mucosal uptake of 59Fe3+ in vivo” value ([2]; EGF in drinking water for up to 7 days) was “maximal after 3 days”, the Total mucosal flux ([2]; mean ± SE, oral EGF about 1 n.mole/day in drinking water, 250 μM Fe3+ chelate in tied-off loop, p < 0.001 vs controls) was 92.4 ± 8.4 pmol 59Fe3+ /mg tissue/10 minu and the Carcass transfer [2, 4] was 35.3 ± 2.6 pmol 59Fe3+ /mg tissue/10 minu. The Mucosal retention [2, 4] was 57.1 ± 6.3 pmol 59Fe3+ /mg tissue/10 minu and the “Vmax for 59Fe3+ uptake” value [3] was 9.4 ± 1.1 pmol/mg/min.
